This note sets out measurements from US20210392895A1, “NOVEL OXADIAZOLES” (PI INDUSTRIES LIMITED, priority 2018, published 2021).

SMILES strings stand for the structures.

The assay has as its system Phakopsora pachyrhizi. In words: Phakopsora pachyrhizi test in soybean (greenhouse, preventive activity, disease severity rating). The assay is classed as in vivo. Conditions: preventive spray on soybean, compared to the untreated check. On the procedure: To test the preventive activity of compounds, healthy young soybean plants, raised in the greenhouse, were sprayed with the active compound solution at the stated application rates inside spray cabinets using hallowcone nozzles. One day after treatment, the plants were inoculated with a suspension containing 2.1×10^6 Phakopsora pachyrhizi spores. The inoculated plants were then kept in the greenhouse chamber at 25° C. temperature and 90% relative humidity for disease expression. A visual assessment of the compound's performance was carried out by rating the disease severity (0-100% scale) on treated plants on 3, 7, 10 and 15 days after application. Efficacy (% control) of the compounds was calculated by comparing the disease rating in the treatment with the one of the untreated control. The treated plants were also assessed for plant compatibility by recording symptoms like necrosis, chlorosis and stunting.
Turning to `C[N+]1(C)CC[C@H](Oc2ccc(-c3noc(C(F)(F)F)n3)cn2)C1` [Compound 51, (S)-1,1-dimethyl-3-((5-(5-(trifluoromethyl)-1,2,4-oxadiazol-3-yl)pyridin-2-yl)oxy)pyrrolidin-1-ium 2,2,2-trifluoroacetate], the pest or weed control (usually how far the test organism was held down) at 500 ppm is over 70%. Consider `O=C(c1ccccc1F)N1CC[C@H](Oc2ccc(-c3noc(C(F)(F)F)n3)cc2F)C1` [Compound 52, (S)-(3-(2-fluoro-4-(5-(trifluoromethyl)-1,2,4-oxadiazol-3-yl)phenoxy)pyrrolidin-1-yl)(2-fluorophenyl)methanone], for which the pest or weed control at 500 ppm is over 70%.

`COc1ccc(C(=O)N2CC[C@H](Oc3ccc(-c4noc(C(F)(F)F)n4)cc3F)C2)cc1` [Compound 53, (S)-(3-(2-fluoro-4-(5-(trifluoromethyl)-1,2,4-oxadiazol-3-yl)phenoxy)pyrrolidin-1-yl)(4-methoxyphenyl)methanone] returned a pest or weed control at 500 ppm of over 70%.

Compound `O=C(c1cccc(F)c1)N1CC[C@H](Oc2ccc(-c3noc(C(F)(F)F)n3)cc2F)C1` [Compound 54, (S)-(3-(2-fluoro-4-(5-(trifluoromethyl)-1,2,4-oxadiazol-3-yl)phenoxy)pyrrolidin-1-yl)(3-fluorophenyl)methanone] displayed a pest or weed control at 500 ppm of over 70%. Consider `O=C(c1cncnc1)N1CC[C@H](Oc2ccc(-c3noc(C(F)(F)F)n3)cc2)C1` [Compound 57, (S)-pyrimidin-5-yl(3-(4-(5-(trifluoromethyl)-1,2,4-oxadiazol-3-yl)phenoxy)pyrrolidin-1-yl)methanone], for which the pest or weed control at 500 ppm was over 70%. Consider `CC(C)(C)OC(=O)N1CC[C@H](Oc2ccc(-c3noc(C(F)(F)F)n3)c(F)c2)C1` [Compound 62, tert-butyl (S)-3-(3-fluoro-4-(5-(trifluoromethyl)-1,2,4-oxadiazol-3-yl)phenoxy)pyrrolidine-1-carboxylate], for which the pest or weed control at 500 ppm is over 70%.

With `O=C(c1ccccc1F)N1CC[C@H](Oc2ccc(-c3noc(C(F)(F)F)n3)c(F)c2)C1` [Compound 63, (S)-(3-(3-fluoro-4-(5-(trifluoromethyl)-1,2,4-oxadiazol-3-yl)phenoxy)pyrrolidin-1-yl)(2-fluorophenyl)methanone], the pest or weed control at 500 ppm was over 70%. Regarding `O=C(c1cccc(F)c1)N1CC[C@H](Oc2ccc(-c3noc(C(F)(F)F)n3)c(F)c2)C1` [Compound 64, (S)-(3-(3-fluoro-4-(5-(trifluoromethyl)-1,2,4-oxadiazol-3-yl)phenoxy)pyrrolidin-1-yl)(3-fluorophenyl)methanone], the pest or weed control at 500 ppm is over 70%.

`O=C(c1cccnc1)N1CC[C@H](Oc2ccc(-c3noc(C(F)(F)F)n3)c(F)c2)C1` [Compound 65, (S)-(3-(3-fluoro-4-(5-(trifluoromethyl)-1,2,4-oxadiazol-3-yl)phenoxy)pyrrolidin-1-yl)(pyridin-3-yl)methanone] showed a pest or weed control at 500 ppm of over 70%. In the case of `O=S(=O)(c1ccccc1)N1CC[C@@H](Oc2ccc(-c3noc(C(F)(F)F)n3)cn2)C1` [Compound 71, (R)-3-(6-((1-(phenylsulfonyl)pyrrolidin-3-yl)oxy)pyridin-3-yl)-5-(trifluoromethyl)-1,2,4-oxadiazole], the pest or weed control at 500 ppm is over 70%. Regarding `O=C(c1ccccc1F)N1CC[C@@H](Oc2ccc(-c3noc(C(F)(F)F)n3)cn2)C1` [Compound 74, (R)-(2-fluorophenyl)(3-((5-(5-(trifluoromethyl)-1,2,4-oxadiazol-3-yl)pyridin-2-yl)oxy)pyrrolidin-1-yl)methanone], the pest or weed control at 500 ppm was over 70%. Regarding `O=C(c1cccnc1)N1CC[C@@H](Oc2ccc(-c3noc(C(F)(F)F)n3)cn2)C1` [Compound 79, (R)-pyridin-3-yl(3-((5-(5-(trifluoromethyl)-1,2,4-oxadiazol-3-yl)pyridin-2-yl)oxy)pyrrolidin-1-yl)methanone], the pest or weed control at 500 ppm is over 70%. Compound `CN(c1ccc(-c2noc(C(F)(F)F)n2)cc1)C1CN(C(=O)OC(C)(C)C)C1` [Compound 80, tert-butyl 3-(methyl(4-(5-(trifluoromethyl)-1,2,4-oxadiazol-3-yl)phenyl)amino)azetidine-1-carboxylate] yielded a pest or weed control at 500 ppm of over 70%. The value for `O=C(c1ccccc1)N1CCC(Oc2ccc(-c3noc(C(F)(F)F)n3)cc2)CC1` [Compound 81, phenyl(4-(4-(5-(trifluoromethyl)-1,2,4-oxadiazol-3-yl)phenoxy)piperidin-1-yl)methanone] was over 70%; that for `CC(C)(C)OC(=O)N1CC(N(c2ccc(-c3noc(C(F)(F)F)n3)cc2)c2ccc(-c3noc(C(F)(F)F)n3)cc2)C1` [Compound 82, tert-butyl 3-(bis(4-(5-(trifluoromethyl)-1,2,4-oxadiazol-3-yl)phenyl)amino)azetidine-1-carboxylate] was over 70%.

For the compound `CC(C)(C)OC(=O)N1CCC(Oc2ccc(-c3noc(C(F)(F)F)n3)cc2)CC1` [Compound 84, tert-butyl 4-(4-(5-(trifluoromethyl)-1,2,4-oxadiazol-3-yl)phenoxy)piperidine-1-carboxylate], the pest or weed control at 500 ppm was over 70%. The result for `CN(c1ccc(-c2noc(C(F)(F)F)n2)cc1)C1CN(C(=O)c2cccc(Cl)c2)C1` [Compound 88, (3-chlorophenyl)(3-(methyl(4-(5-(trifluoromethyl)-1,2,4-oxadiazol-3-yl)phenyl)amino)azetidin-1-yl)methanone] reads over 70%; that for `CN(c1ccc(-c2noc(C(F)(F)F)n2)cc1)C1CN(C(=O)c2ccc(C(F)(F)F)cc2)C1` [Compound 101, (3-(methyl(4-(5-(trifluoromethyl)-1,2,4-oxadiazol-3-yl)phenyl)amino)azetidin-1-yl)(4-(trifluoromethyl)phenyl)methanone], over 70%. Take `O=C(c1ccc(C(F)(F)F)cc1)N1CCC(Oc2ccc(-c3noc(C(F)(F)F)n3)cc2)CC1` [Compound 102, (4-(4-(5-(trifluoromethyl)-1,2,4-oxadiazol-3-yl)phenoxy)piperidin-1-yl)(4-(trifluoromethyl)phenyl)methanone]: the pest or weed control at 500 ppm was over 70%. In turn, `O=S(=O)(c1ccccc1)N1CC[C@H](Oc2ccc(-c3noc(C(F)(F)F)n3)cn2)C1` [Compound 104, (S)-3-(6-((1-(phenylsulfonyl)pyrrolidin-3-yl)oxy)pyridin-3-yl)-5-(trifluoromethyl)-1,2,4-oxadiazole] displayed a pest or weed control at 500 ppm of over 70%. `COc1ccc(S(=O)(=O)N2CC[C@H](Oc3ccc(-c4noc(C(F)(F)F)n4)cn3)C2)cc1` [Compound 105, (S)-3-(6-((1-((4-methoxyphenyl)sulfonyl)pyrrolidin-3-yl)oxy)pyridin-3-yl)-5-(trifluoromethyl)-1,2,4-oxadiazole] returned a pest or weed control at 500 ppm of over 70%.

In turn, `O=S(=O)(C1CC1)N1CC[C@H](Oc2ccc(-c3noc(C(F)(F)F)n3)cn2)C1` [Compound 106, (S)-3-(6-((1-(cyclopropylsulfonyl)pyrrolidin-3-yl)oxy)pyridin-3-yl)-5-(trifluoromethyl)-1,2,4-oxadiazole] displayed a pest or weed control at 500 ppm of over 70%. The result for `Cc1ccc(S(=O)(=O)N2CC[C@H](Oc3ccc(-c4noc(C(F)(F)F)n4)cn3)C2)cc1` [Compound 107, (S)-3-(6-((1-tosylpyrrolidin-3-yl)oxy)pyridin-3-yl)-5-(trifluoromethyl)-1,2,4-oxadiazole] reads over 70%; that for `O=S(=O)(c1cccc(Cl)c1)N1CC[C@H](Oc2ccc(-c3noc(C(F)(F)F)n3)cn2)C1` [Compound 108, (S)-3-(6-((1-((3-chlorophenyl)sulfonyl)pyrrolidin-3-yl)oxy)pyridin-3-yl)-5-(trifluoromethyl)-1,2,4-oxadiazole], over 70%. In turn, `O=S(=O)(c1ccc(C(F)(F)F)cc1)N1CC[C@H](Oc2ccc(-c3noc(C(F)(F)F)n3)cn2)C1` [Compound 109, (S)-5-(trifluoromethyl)-3-(6-((1-((4-(trifluoromethyl)phenyl)sulfonyl)pyrrolidin-3-yl)oxy)pyridin-3-yl)-1,2,4-oxadiazole] yielded a pest or weed control at 500 ppm of over 70%. Compound `CCCS(=O)(=O)N1CC[C@H](Oc2ccc(-c3noc(C(F)(F)F)n3)cn2)C1` [Compound 110, (S)-3-(6-((1-(propylsulfonyl)pyrrolidin-3-yl)oxy)pyridin-3-yl)-5-(trifluoromethyl)-1,2,4-oxadiazole] showed a pest or weed control at 500 ppm of over 70%. Compound `CS(=O)(=O)N1CC[C@H](Oc2ccc(-c3noc(C(F)(F)F)n3)cn2)C1` [Compound 111, (S)-3-(6-((1-(methylsulfonyl)pyrrolidin-3-yl)oxy)pyridin-3-yl)-5-(trifluoromethyl)-1,2,4-oxadiazole] returned a pest or weed control at 500 ppm of over 70%. In turn, `Cc1cccc(S(=O)(=O)N2CC[C@H](Oc3ccc(-c4noc(C(F)(F)F)n4)cn3)C2)c1` [Compound 112, (S)-3-(6-((1-(m-tolylsulfonyl)pyrrolidin-3-yl)oxy)pyridin-3-yl)-5-(trifluoromethyl)-1,2,4-oxadiazole] displayed a pest or weed control at 500 ppm of over 70%. Take `O=S(=O)(N1CC[C@H](Oc2ccc(-c3noc(C(F)(F)F)n3)cc2)C1)C(F)(F)F` [Compound 114, (S)-5-(trifluoromethyl)-3-(4-((1-((trifluoromethyl)sulfonyl)pyrrolidin-3-yl)oxy)phenyl)-1,2,4-oxadiazole]: the pest or weed control at 500 ppm is over 70%.

With `CCCS(=O)(=O)N1CC[C@H](Oc2ccc(-c3noc(C(F)(F)F)n3)cc2)C1` [Compound 115, (S)-3-(4-((1-(propylsulfonyl)pyrrolidin-3-yl)oxy)phenyl)-5-(trifluoromethyl)-1,2,4-oxadiazole], the pest or weed control at 500 ppm is over 70%.
